Data set [1] in a line: Dissociation constant, pKa of compound. In kind it is physicochemical.
For data set [2], the target named is T1, N-alpha-acetyltransferase 50 (Homo sapiens) (UniProt Q9GZZ1).
T1 sequence (whole entry): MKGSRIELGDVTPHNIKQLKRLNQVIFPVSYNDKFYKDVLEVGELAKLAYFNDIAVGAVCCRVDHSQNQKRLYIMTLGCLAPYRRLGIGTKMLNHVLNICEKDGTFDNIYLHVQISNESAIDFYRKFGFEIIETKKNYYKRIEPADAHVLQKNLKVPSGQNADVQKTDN
Description: Binding affinity to full length human N-terminal His-tagged/GST-tagged Naa50 expressed in Escherichia coli BL21(DE3) cells assessed as half life for dissociation by SPR analysis

Data set [3] concerns the target T2, N-alpha-acetyltransferase 50 (Homo sapiens, UniProt Q9GZZ1).
T2 sequence (Q9GZZ1 whole entry): T1 sequence (whole entry)
In words: Binding affinity to full length human N-terminal His-tagged/GST-tagged Naa50 expressed in Escherichia coli BL21(DE3) cells in by SPR analysis. (In SPR one partner is held on a chip, and binding of the other changes the refractive index at the surface.)

Usually pKa stands for the negative logarithm of the acid dissociation constant. The low end stands for a group that gives up its proton readily, the high end for a group that holds its proton tightly. Regarding `CNC(=O)c1csc([C@@H]2C[C@H](NC(=O)[C@@H]3CC(=O)N(C)C(=O)N3)CN2C(=O)c2ccc(-c3nn[nH]n3)cc2)n1`, the pKa in data set [1] amounted to 4. `Cc1csc([C@@H]2C[C@H](NC(=O)[C@@H]3CC(=O)N(C)C(=O)N3)CN2C(=O)c2ccc(-c3nnc[nH]3)cc2)n1` returned a pKa in data set [1] of 8.9. Same read-out and setting: the figure for `Cc1csc([C@@H]2C[C@H](NC(=O)[C@@H]3CC(=O)N(C)C(=O)N3)CN2C(=O)c2ccc(C(=O)O)cc2)n1` is 3.6. Same read-out and setting: the value for `Cc1csc([C@@H]2C[C@H](NC(=O)[C@@H]3CC(=O)N(C)C(=O)N3)CN2C(=O)c2ccc(-c3nn[nH]n3)cc2)n1` was 3.7. Broadly, the Kd is the equilibrium constant for the complex coming apart. `CC(C)(COP(=O)(O)OP(=O)(O)OC[C@H]1O[C@@H](n2cnc3c(N)ncnc32)[C@H](O)[C@@H]1OP(=O)(O)O)[C@@H](O)C(=O)NCCC(=O)NCCS` [COENZYME_A] returned a T1/2 in data set [2] of 0.4 min. In data set [3], this compound gave a Kd of 156 nM. On the same counts, the results for `CC(=O)SCCNC(=O)CCNC(=O)[C@H](O)C(C)(C)COP(=O)(O)OP(=O)(O)OC[C@H]1O[C@@H](n2cnc3c(N)ncnc32)[C@H](O)[C@@H]1OP(=O)(O)O` are 4 min and 17.6 nM.

The record behind these values is ChEMBL document CHEMBL4616699, “Characterization of Specific N-α-Acetyltransferase 50 (Naa50) Inhibitors Identified Using a DNA Encoded Library” (ACS Med Chem Lett, 2020).
